The test concerns the target nuclear factor-kappa B (NF-kB)-inducing kinase (NIK) (Homo sapiens (Human), UniProt Q99558). The experiment in a line: NIK Enzyme Inhibition Assay (Transcreener ADP fluorescence polarization). The settings on record: read-out: NIK ADP-FP (Ki uM). Type of test: biochemical. Here is the method: NIK Enzyme Inhibition Assay: The ability of the nuclear factor-kappa B (NF-kB)-inducing kinase (NIK) to catalyze the hydrolysis of adenosine-5′-triphosphate (ATP) was monitored using the Transcreener ADP (adenosine-5′-diphosphate) assay (BellBrook Labs). Purified NIK (0.2-1 nM) derived from a baculovirus-infected insect cell expression system was incubated with test compounds for 1-3.5 hours in 50 mM 2-[4-(2-hydroxyethyl)piperazin-1-yl]ethanesulfonic acid buffer (pH 7.2) containing 10 mM MgCl2, 2 mM dithiothreitol, 10 uM ATP, 0.01% Triton X-100, 0.1% gamma-globulins from bovine blood, 1% dimethylsulfoxide (DMSO), 12 ug/mL ADP antibody and 4 nM ADP-AlexaFluor® 633 tracer. Reactions were quenched by the addition of 20 mM 2,2′,2″,2′″-(ethane-1,2-diyldinitrilo)tetraacetic acid and 0.01% Brij 35. The tracer bound to the antibody was displaced by the ADP generated during the NIK reaction, which causes a decrease in fluorescence polarization that was measured by laser excitation at 633 nm with a Fluorescence Correlation Spectroscopy Plus reader (Evotec AG).
For orientation: Fluorescence polarisation rises when a labelled molecule tumbles more slowly, as on binding a larger partner.

The mark [1] stands for this setting: purified NIK 0.2-1 nM, 10 uM ATP, Morrison's quadratic equation.

SMILES strings stand for the structures. Where “and” joins values, the source holds several entries; their conditions need not be identical. Identical values can stand only once. Like-named read-outs stand apart in the source and are kept apart here.

Chain of nuclear factor-kappa B (NF-kB)-inducing kinase (NIK) (Q99558 whole entry): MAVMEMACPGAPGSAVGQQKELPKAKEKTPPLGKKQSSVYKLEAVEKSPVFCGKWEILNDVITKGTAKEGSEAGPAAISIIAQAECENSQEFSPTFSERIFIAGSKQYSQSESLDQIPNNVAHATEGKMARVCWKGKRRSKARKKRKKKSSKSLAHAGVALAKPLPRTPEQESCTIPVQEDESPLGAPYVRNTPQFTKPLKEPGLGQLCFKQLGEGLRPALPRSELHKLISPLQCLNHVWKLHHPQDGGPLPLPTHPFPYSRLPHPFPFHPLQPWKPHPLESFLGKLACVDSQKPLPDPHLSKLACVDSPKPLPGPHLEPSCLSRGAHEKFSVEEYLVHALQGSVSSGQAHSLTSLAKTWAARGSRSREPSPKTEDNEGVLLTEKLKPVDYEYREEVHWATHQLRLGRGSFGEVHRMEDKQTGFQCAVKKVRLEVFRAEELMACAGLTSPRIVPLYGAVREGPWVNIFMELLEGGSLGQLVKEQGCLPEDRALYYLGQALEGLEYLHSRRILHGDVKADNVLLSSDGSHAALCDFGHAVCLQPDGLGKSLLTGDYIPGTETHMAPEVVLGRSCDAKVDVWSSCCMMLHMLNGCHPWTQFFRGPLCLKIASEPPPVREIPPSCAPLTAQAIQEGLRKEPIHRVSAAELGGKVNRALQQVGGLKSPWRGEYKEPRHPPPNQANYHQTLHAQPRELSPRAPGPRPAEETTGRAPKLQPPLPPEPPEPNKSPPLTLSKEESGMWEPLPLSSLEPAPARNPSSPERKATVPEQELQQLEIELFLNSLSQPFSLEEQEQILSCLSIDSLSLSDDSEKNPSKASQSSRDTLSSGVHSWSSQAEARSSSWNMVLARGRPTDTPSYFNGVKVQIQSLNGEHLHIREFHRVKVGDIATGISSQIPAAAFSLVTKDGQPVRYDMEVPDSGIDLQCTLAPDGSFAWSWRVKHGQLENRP

What is called Ki is the dissociation constant of the complex between target and ligand, obtained from inhibition or displacement. `CC(C)(O)C#Cc1cc2c(cc1F)C1CC(C1)c1[nH]c(C(N)=O)nc1-2` (racemic): the Ki under setting [1] is 0.00068 µM. With `CN1CCC(CNC(=O)c2c(C(N)=O)nc3n2CCOc2cc(F)c(C#CC(C)(C)O)cc2-3)C1` (racemic) [Example 68], under setting [1], the inhibitory constant (Ki) turned out to be 0.879 µM. Still for that read-out and setting: next, `Cc1nc(C(C)(O)C#Cc2cc3c(cc2F)OCCn2cc(C(N)=O)nc2-3)c[nH]1` (racemic): 2.5 µM. Consider `CN1CCC(O)(C#Cc2ccc3c(c2)-c2nc(C(N)=O)cn2CCO3)C1=O` (stereo not shown), for which the inhibition constant Ki under setting [1] stood at 0.004 µM. As for `Cc1cc([C@](C)(O)C#Cc2ccc3c(c2)-n2nc(C(N)=O)cc2CCO3)no1`, under setting [1], the Ki turned out to be 0.0066 µM. `CC(C)(O)C#Cc1cc2c(cc1F)OCCn1c-2nc(C(N)=O)c1C(=O)NC1COC1` (racemic) [Example 59]: the inhibition constant (Ki) under setting [1] amounted to 0.006 µM. On to `Cc1nc([C@](C)(O)C#Cc2ccc3c(c2)-n2nc(C(N)=O)cc2CCO3)no1` [Example 673, (R)-9-(3-hydroxy-3-(5-methyl-1,2,4-oxadiazol-3-yl)but-1-yn-1-yl)-4,5-dihydro-benzo[b]pyrazolo[1,5-d][1,4]oxazepine-2-carboxamide], for which, under setting [1], the inhibitory constant (Ki) is 0.045 µM. Turning to `Cn1nc(-c2ccncc2)nc1-c1c(C(N)=O)nc2n1CCOc1cc(F)c(C#CC(C)(C)O)cc1-2` (racemic), under setting [1], the Ki is 0.635 µM. For the compound `CC(C)(O)C#Cc1ccc2c(c1)-c1nc(C(N)=O)cn1C1CC2C1` [Example 179, 10-(3-hydroxy-3-methyl-but-1-ynyl)-5,6,7,12-tetrahydro-5,7-methanobenzo[c]imi-dazo[1,2-a]azepine-2-carboxamide], under setting [1], the Ki is 0.022 µM. Consider `CC(O)(C#Cc1cc2c(cc1F)OCCn1cc(C(N)=O)nc1-2)c1ccncn1` (stereo not shown), for which, under setting [1], the Ki was > 5 µM. Same read-out and setting: in the case of `Cn1ccnc1C(C)(O)C#Cc1cc2c(cc1F)OCCn1cc(C(N)=O)nc1-2` (stereo not shown) it was 0.239 µM; in that of `NC(=O)c1cn2c(n1)-c1cc(C#CC3(O)CCCC3)ccc1OCC2` [Example 1, 9-(1-hydroxy-cyclopentylethynyl)-4,5-di-hydro-6-oxa-1,3a-diaza-benzo[e]azulene-2-carboxylic acid amide], 0.052 µM; in that of `CN1CCCC(O)(C#Cc2ccc3c(c2)-c2nc(C(N)=O)sc2CCO3)C1=O` (stereo not shown), 0.0029 µM.

On to `Cc1cc([C@](C)(O)C#Cc2ccc3c(n2)-n2cc(C(N)=O)nc2CCO3)no1` (racemic), for which, under setting [1], the inhibitory constant (Ki) came to 0.21 µM. Regarding `CC(O)C(C)(O)C#Cc1cc2c(cc1F)OCCn1cc(C(N)=O)nc1-2` (stereo not shown) [Example 142], the Ki under setting [1] stood at 0.142 µM. Regarding `NC(=O)c1cn2c(n1)-c1cc(C#CC3(O)CC4CCC(C3)N4)ccc1OCC2` (stereo not shown) [Example 31, 9-(3-hydroxy-8-aza-bicyclo[3.2.1]oct-3-ylethynyl)-4,5-dihydro-6-oxa-1,3a-diaza-benzo[e]azulene-2-carboxylic acid amide], the Ki under setting [1] is > 5 µM.

Take `Cc1cc([C@](C)(O)C#Cc2ccc3c(c2)-c2nc(C(N)=O)c(C(=O)N(C)C)n2C2CC3C2)no1` (racemic): under setting [1], the Ki amounted to 0.03 µM. In the case of `CN1CCCC(NC(=O)c2c(C(N)=O)nc3n2CCOc2cc(F)c(C#CC(C)(C)O)cc2-3)C1` (stereo not shown) [Example 78], the Ki under setting [1] worked out at 0.06 µM.

Take `CNC(=O)c1c(C(N)=O)nn2c1CCOc1ccc(C#C[C@@](C)(O)c3cc(C)on3)cc1-2` [Example 548]: the inhibition constant Ki is 0.0014 µM.

With `Cc1c(C(N)=O)nc2n1CCOc1cc(F)c(C#CC(C)(C)O)cc1-2` [Example 34, 8-fluoro-9-(3-hydroxy-3-methyl-but-1-ynyl)-3-methyl-4,5-dihydro-6-oxa-1,3a-diaza-benzo[e]azulene-2-carboxylic acid amide], under setting [1], the Ki came out at 0.025 µM. Consider `CC(C)(O)C#Cc1cc2c(cc1Cl)OCCn1cc(C(N)=O)nc1-2` (racemic) [Example 186], for which the Ki under setting [1] was > 5 µM.

`NC(=O)c1cc2n(n1)-c1cc(C#CC3(O)CCCC3O)ccc1OCC2` (stereo not shown) [Example 695]: the Ki under setting [1] is 1.8 µM and 1.1 µM. The same measure, in the same setting: in the case of `CC(C)(O)C#Cc1cc2c(cc1F)C1CC(C1)n1c-2nc(C(N)=O)c1-c1nc(-c2cccnc2)n[nH]1` (racemic) [Example 207] it was 0.00077 µM; in that of `CC(O)(C#Cc1cc2c(cc1F)C1CC(C1)n1cc(C(N)=O)nc1-2)c1ccccn1` (racemic) [Example 160], 0.0068 µM; in that of `NC(=O)c1cc2n(n1)-c1cc(C#CC3(O)CCCC3)ccc1OCC21COC1` [Example 715, 9-((1-hydroxycyclopentyl)ethynyl)-5H-spiro[benzo[b]pyrazolo[1,5-d][1,4]oxa-zepine-4,3′-oxetane]-2-carboxamide], 0.1 µM. On to `CNC(=O)c1c(C(N)=O)nc2n1CCOc1ccc(C#CC(C)(O)CO)cc1-2` (racemic), for which the Ki under setting [1] was determined as 0.003 µM. Regarding `CN1CC[C@@](O)(C#Cc2ccc3c(c2)-n2nc(C(N)=O)c(Cl)c2C(F)(F)CO3)C1=O` [Example 719, (R)-3-chloro-4,4-difluoro-9-((3-hydroxy-1-methyl-2-oxopyrrolidin-3-yl)ethynyl)-4,5-dihydrobenzo[b]pyrazolo[1,5-d][1,4]oxazepine-2-carboxamide], the inhibition constant Ki under setting [1] turned out to be 0.0004 µM. Regarding `CC(O)(C#Cc1cc2c(cc1F)OCCn1cc(C(N)=O)nc1-2)C(=O)NC1CC1` (stereo not shown) [Example 94], under setting [1], the inhibition constant Ki was determined as 0.854 µM. Still for that read-out and setting: next, `CC(C)(O)C#Cc1cc2c(cc1F)OCCn1c-2nc(C(N)=O)c1C(=O)NCCN1CCCC1` (racemic) [Example 67]: 0.048 µM; `CC(O)(C#Cc1cc2c(cc1F)C1CC(C1)n1c-2nc(C(N)=O)c1-c1nc(C2CC2)n[nH]1)CO` (stereo not shown): 0.0065 µM; `Cc1ncccc1C(C)(O)C#Cc1cc2c(cc1F)OCCn1cc(C(N)=O)nc1-2` (stereo not shown) [Example 19, 8-fluoro-9-[3-hydroxy-3-(2-methyl-pyri-din-3-yl)-bul-1-ynyl]-4,5-dihydro-6-oxa-1,3a-diaza-benzo[e]azulene-2-carboxy-lic acid amide]: > 5 µM. Still for that read-out and setting: in the case of `CC(O)(C#Cc1cc2c(cc1F)OCCn1cc(C(N)=O)nc1-2)c1cncnc1` (stereo not shown) [Example 14, 8-Fluoro-9-(3-hydroxy-3-pyrimidin-5-yl-but-1-ynyl)-4,5-dihydro-6-oxa-1,3a-diaza-benzo[e]azulene-2-carboxylic acid amide] it was 0.864 µM; in that of `Cn1cnc(C(C)(O)C#Cc2cc3c(cc2F)OCCn2cc(C(N)=O)nc2-3)c1` (stereo not shown), > 5 µM; in that of `CC(=O)N1CCN(Cc2c(C(N)=O)nc3n2CCOc2ccc(C#CC(C)(C)O)cc2-3)CC1`, 0.21 µM.

`NC(=O)c1cn2c(n1)-c1cc(C#CC3(O)CCc4cccnc43)ccc1OCC2` (racemic): the Ki under setting [1] was 0.0051 µM. In the case of `CNC(=O)c1c(C(N)=O)nc2n1CCOc1ccc(C#CC3(O)CCCCC3)cc1-2`, the Ki under setting [1] was 0.0057 µM.

As to `CN1CC[C@@](O)(C#Cc2ccc3c(c2)-c2nc(C(N)=O)c(COc4ccccc4Cl)n2CCO3)C1=O`, the Ki was 0.004 µM. Consider `COCC(C)(O)C#Cc1cc2c(cc1F)OCCn1c-2nc(C(N)=O)c1-c1nc(C2CC2)n[nH]1` (stereo not shown) [Example 213], for which the Ki under setting [1] was determined as 0.009 µM. For the compound `CN1CCC(O)(C#Cc2ccc3c(c2)-c2nc(C(N)=O)cn2CCO3)C1` (stereo not shown) [Example 23, 9-(3-hydroxy-1-methyl-pyrrolidin-3-yl-ethynyl)-4,5-dihydro-6-oxa-1,3a-diaza-benzo[e]azulene-2-carboxylic acid amide], under setting [1], the Ki is > 5 µM.

Take `CC(O)(C#Cc1cc2c(cc1F)OCCn1cc(C(N)=O)nc1-2)C(F)(F)F` (stereo not shown) [Example 56, 8-fluoro-9-(4,4,4-trifluoro-3-hydroxy-3-methyl-but-1-ynyl)-4,5-dihydro-6-oxa-1,3a-diaza-benzo[e]azulene-2-carboxylic acid amide]: under setting [1], the inhibition constant (Ki) worked out at 2 µM.

Values taken from patent US9034866B2 (Genentech, Inc., priority 2012, dated 2015).
